Measurements taken from patent publication US11370769B2, “TRPC5 inhibitors and methods of using same” (BOARD OF REGENTS OF THE UNIVERSITY OF NEBRASKA, priority 2017, dated 2022).

Target: T1, TRPC5 channel (Rattus norvegicus, UniProt Q8VD38)
T1 construct: Acutely isolated glomeruli were prepared as described above; from tissue; host or cells: acutely isolated glomeruli (podocytes) of AT1R Tg and WT rats
T1 sequence (Q8VD38 1-974): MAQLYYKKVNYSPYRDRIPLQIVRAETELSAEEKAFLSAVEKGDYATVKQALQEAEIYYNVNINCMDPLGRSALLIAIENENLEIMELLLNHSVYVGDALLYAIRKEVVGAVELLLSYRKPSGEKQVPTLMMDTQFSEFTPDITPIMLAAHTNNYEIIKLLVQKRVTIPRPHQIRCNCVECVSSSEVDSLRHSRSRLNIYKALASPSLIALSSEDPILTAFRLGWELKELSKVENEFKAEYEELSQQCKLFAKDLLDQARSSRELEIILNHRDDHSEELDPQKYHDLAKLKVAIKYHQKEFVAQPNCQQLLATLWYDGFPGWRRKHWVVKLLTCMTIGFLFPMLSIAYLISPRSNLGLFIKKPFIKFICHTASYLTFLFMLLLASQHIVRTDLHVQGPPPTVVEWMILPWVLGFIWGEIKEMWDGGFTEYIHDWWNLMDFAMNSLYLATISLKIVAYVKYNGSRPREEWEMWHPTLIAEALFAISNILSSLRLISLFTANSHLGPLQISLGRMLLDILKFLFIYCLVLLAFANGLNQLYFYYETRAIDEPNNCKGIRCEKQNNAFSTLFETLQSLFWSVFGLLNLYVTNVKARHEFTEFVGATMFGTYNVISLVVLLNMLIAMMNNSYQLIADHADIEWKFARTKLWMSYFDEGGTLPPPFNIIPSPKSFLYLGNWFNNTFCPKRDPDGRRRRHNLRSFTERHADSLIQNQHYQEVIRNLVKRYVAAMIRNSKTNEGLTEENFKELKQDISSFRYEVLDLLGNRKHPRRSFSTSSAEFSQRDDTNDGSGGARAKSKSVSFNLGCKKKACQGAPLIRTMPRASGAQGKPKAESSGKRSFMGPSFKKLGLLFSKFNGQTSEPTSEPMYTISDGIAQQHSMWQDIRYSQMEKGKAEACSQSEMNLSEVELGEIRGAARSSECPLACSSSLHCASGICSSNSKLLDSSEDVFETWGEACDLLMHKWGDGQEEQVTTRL
Test: Glomerular inside-out single-channel recordings, riluzole-activated TRPC5 channel activity
Type: cell-based
Settings: Rilu 3 μM
Protocol: Acute glomeruli isolation and Ca^2+-imaging: WT and AT1R Tg littermates were killed and kidneys were quickly dissected and washed with ice-cold PBS. After isolation using the sieving technique as previously described (11), glomeruli were incubated with the Ca^2+ indicator Fura2-AM (1 μM; Invitrogen) at 37° C. for 15 min. The extracellular solution for Ca^2+-imaging contained (in mM) 140 NaCl, 5 KCl, 10 HEPES, 2 MgCl2, 2 CaCl2, 10 glucose, with pH7.4 adjusted with NaOH. Glomerular Ca^2+-imaging was performed using an inverted microscope (Olympus IX70) with a high-speed CCD camera (Hamamatsu Photonics). Images were taken and analyzed using the Metafluor software (Molecular Devices). It should be noted that Fura-2 is most often taken up by podocytes at the periphery of the isolated glomerulus, but the specificity of recordings in podocytes is best confirmed by patch clamp electrophysiology, as described below.
Glomerular single-channel recordings: Acutely isolated glomeruli were prepared as described above. Single-channel recordings were carried out using an Axopatch 200B and Digidata 1550A (Molecular Devices). Bath and pipette solutions for glomerular single-channel recording contained (in mM) 135 CH3SO3Na, 5 CsCl, 2 CaCl2, 1 MgCl2, 10 HEPES, and 10 glucose with pH7.4 adjusted with NaOH. Once in the inside-out configuration, the bath solution was replaced by intracellular solution, containing (in mM) 135 CH3SO3Cs, 10 CsCl, 3 MgATP, 0.2 EGTA, 0.13 CaCl2, and 10 HEPES with pH 7.4 adjusted with CsOH. Patch pipettes, with resistance of 4-8 MΩ, were prepared using a two step-protocol (P-97, Sutter Instrument). Pipettes were fire-polished before use. For inside-out configuration, a giga-seal (>10 GΩ) was established prior to membrane rupture. Data was acquired at 10 kHz sampling frequency, and filtered with low-pass filtering at 1 kHz. Holding membrane potential was at −60 mV. Single-channel analysis was carried out using Clampfit 10.4 software (Molecular Devices).

Row | SMILES | inhibition of riluzole-activated channel activity, inside-out recordings of podocytes (AT1R Tg rat glomeruli at disease onset (Onset), ML204 1 μM) | inhibition of riluzole-activated conductance, inside-out recordings of podocytes (AT1R Tg rat glomeruli, established disease (Advanced), ML204 1 μM) | block of TRPC5 channel activity, inside-out recordings in intact glomeruli (AT1R Tg rats, Advanced, AC1903 1 μM)
1 | Cc1cc(N2CCCCC2)nc2ccccc12 [ML204, reference compound] | significant ML204 inhibition of channel activity | inhibition of a much greater riluzole-activated conductance | 
2 | c1ccc(Cn2c(NCc3ccco3)nc3ccccc32)cc1 [AC1903] |  |  | blocks TRPC5 channel activity
